Laboratory results: the RepoRT retention time repository

Experiment: HILIC, Waters Atlantis Premier BEH Z-HILIC, 100 × 2.1 mm, 1.7 µm, 40 °C, 0.15 mL/min, estimated dead time 1.5 min; A: water + 20 mM ammonium carbonate + 5 µM medronic acid; B: 10% water + 90% acetonitrile + 2 mM ammonium carbonate + 0.5 µM medronic acid; gradient (min/%B) 0/90 18/55 18.1/20 21.5/20 22/90 23.5/90 25.5/90
Details: stereoisomer not certain

SMILES	LC retention time [min]
Nc1ncnc2c1ncn2C1OC(COP(=O)(O)OP(=O)(O)O)C(O)C1O (configuration not stated) [ADP]	11.1
Nc1ncnc2c1ncn2C1OC(COP(=O)(O)O)C(O)C1O (configuration not stated) [AMP]	9.07
Nc1ncnc2c1ncn2C1OC(COP(=O)(O)OP(=O)(O)OP(=O)(O)O)C(O)C1O (configuration not stated) [ATP]	12.9
CC(=O)SCCNC(=O)CCNC(=O)C(O)C(C)(C)COP(=O)(O)OP(=O)(O)OCC1OC(n2cnc3c(N)ncnc32)C(O)C1OP(=O)(O)O (configuration not stated) [Acetyl-CoA]	10.1
Nc1ncnc2c1ncn2C1OC(CO)C(O)C1O (configuration not stated) [Adenosine]	3.18
O=C(O)CCCCC1SCC2NC(=O)NC21 (configuration not stated) [Biotin]	4.58
CC(C)(COP(=O)(O)OP(=O)(O)OCC1OC(n2cnc3c(N)ncnc32)C(O)C1OP(=O)(O)O)C(O)C(=O)NCCC(=O)NCCS (configuration not stated) [CoenzymeA]	11.8
Cc1cc2nc3c(=O)[nH]c(=O)nc-3n(CC(O)C(O)C(O)COP(=O)(O)OP(=O)(O)OCC3OC(n4cnc5c(N)ncnc54)C(O)C3O)c2cc1C (configuration not stated) [FAD]	7.03
O=P(O)(O)OCC1OC(O)(COP(=O)(O)O)C(O)C1O (configuration not stated) [Fructose-1,6-bisphosphate]	14.8
Nc1nc2c(ncn2C2OC(COP(=O)(O)OP(=O)(O)OP(=O)(O)O)C(O)C2O)c(=O)[nH]1 (configuration not stated) [GTP]	15.3
O=P(O)(O)OCC1OC(O)C(O)C(O)C1O (configuration not stated) [Glucose-6-phosphate]	11.7
OCC1OC(O)C(O)C(O)C1O (configuration not stated) [Hexose]	7.41
NC(=O)C1=CN(C2OC(COP(=O)(O)OP(=O)(O)OCC3OC(n4cnc5c(N)ncnc54)C(O)C3O)C(O)C2O)C=CC1 (configuration not stated) [NADH]	8.31
NC(=O)C1=CN(C2OC(COP(=O)(O)OP(=O)(O)OCC3OC(n4cnc5c(N)ncnc54)C(OP(=O)(O)O)C3O)C(O)C2O)C=CC1 (configuration not stated) [NADPH]	13.3
NC(=O)c1ccc[n+](C2OC(COP(=O)(O)OP(=O)(O)OCC3OC(n4cnc5c(N)ncnc54)C(OP(=O)(O)O)C3O)C(O)C2O)c1 (configuration not stated) [NADP]	13.1
NC(=O)c1ccc[n+](C2OC(COP(=O)(O)OP(=O)(O)OCC3OC(n4cnc5c(N)ncnc54)C(O)C3O)C(O)C2O)c1 (configuration not stated) [NAD]	9.49
CC(=O)NC1C(OP(=O)(O)OP(=O)(O)OCC2OC(n3ccc(=O)[nH]c3=O)C(O)C2O)OC(CO)C(O)C1O (configuration not stated) [UDP-GlcNAc]	9.52
O=C1CC(C(=O)O)NC(=O)N1 (configuration not stated) [dihydroorotic acid]	3.92

Further lines, results first:

LC retention time [min]	SMILES
8.68	O=C(O)CCC(=O)C(=O)O [2-Oxoglutaric acid]
9.22	O=C(O)CCC(O)C(=O)O (configuration not stated) [2-hydroxy glutaric acid]
18.4	NC(N)=NCCCC(N)C(=O)O (configuration not stated) [Arginine]
9.89	C[N+](C)(C)CC(O)CC(=O)[O-] (configuration not stated) [Carnitine]
12.8	O=C(O)CC(O)(CC(=O)O)C(=O)O [Citric acid]
10.8	O=C(CO)C(O)C(O)C(O)COP(=O)(O)O (configuration not stated) [Fructose 6-phosphate]
9.23	NC(CCC(=O)O)C(=O)O (configuration not stated) [Glutamic acid]
10.3	NC(=O)CCC(N)C(=O)O (configuration not stated) [Glutamine]
9.92	O=P(O)(O)OCC(O)CO (configuration not stated) [Glycerol-3-phosphate]
12.8	O=C(O)CC(C(=O)O)C(O)C(=O)O (configuration not stated) [Isocitric acid]
6.5	CCC(C)C(N)C(=O)O (configuration not stated) [Isoleucine]
3.15	CC(O)C(=O)O (configuration not stated) [Lactic Acid]
6.22	CC(C)CC(N)C(=O)O (configuration not stated) [Leucine]
18.6	NCCCCC(N)C(=O)O (configuration not stated) [Lysine]
12.9	C=C(OP(=O)(O)O)C(=O)O [PEP]
12.7	O=C(O)C(CO)OP(=O)(O)O (configuration not stated) [Phosphoglyceric acid A]
9.23	O=C(O)CCC(=O)O [Succinic Acid]
9.78	O=C(CO)COP(=O)(O)O [Triose phosphate]
6.42	CCC(=O)OC(CC(=O)[O-])C[N+](C)(C)C (configuration not stated) [carnitine-C3]
